SMILES strings stand for the structures.

Data on one compound can be found in patent publication US20080152644A1, “Genes Involved in Neurodegenerative Conditions” (priority 2005, published 2008).

Common to all, as to type: in vivo, Drosophila
Test [1] deals with transgenic flies expressing A-beta42. The test can be described thus: Lifespan of transgenic flies expressing A-beta42 fed RAD001. Conditions: fed every three days with 10, 20, 30 and 60 uM RAD001; effect seen even at the lowest concentration; FIG. 7. On the procedure: Flies were maintained in corn meal based standard fly food (Ashburner, 1989). Parental crosses were set up at 25° C. and F1 progeny was collected and raised at 29° C. (FIG. 1). Flies are crossed and maintained at 25° C. according to conventional methods except that all progeny are kept at 29° C. for maximal expression of phenotypes. In the binary Gal4 expression system, this temperature maximizes activity of the Gal4 protein. In the case of ElavGal4C^155/UAS-A-beta42, it is observed that the phenotype is stronger at 29° C., so these flies are kept at this temperature as well.
For 2nd and 3rd chromosome P-element strains, crosses were set using male flies (about 10) from the P-element strain and virgin females (about 10) from the A-beta42 over-expressing strain (ElavGal4C^155/UAS-A-beta42). For X-chromosome P strains, about 10 virgin females were collected from individual P strains and mated with 10 males from the A-beta over-expressing strain. […] 10 vials with 20 progeny from each cross were kept at 29° C. and scored for viability and behavior phenotypes as well as for general morphological changes. For scoring, live flies were transferred to fresh vials and the dead flies were counted every 2-3 days. […]
If successful, this treatment would provide the same beneficiary effect on A-beta42 induced toxicity found through genetic modification. […] Lifespan was scored until all the RAD001 fed flies died. […]

Test [2] has the same test system. In words: Climbing assay (locomotor activity) of RAD001 fed flies expressing A-beta42. The following applies: RAD001 fed flies at 21 day, compared to placebo fed flies; data not shown. The source says:
For the locomotion assay, 20 flies of each experimental genotype were scored at 3, 10 and 15 days of age. Flies were transferred to fresh vials, tapped down and recorded for a few minutes until their climbing came to an equilibrium.
In order to analyze locomotion activity, we used a “climbing assay” (Le Bourg E, Lints F A. (1992). Hypergravity and aging in Drosophila melanogaster. 4. Climbing activity. Gerontology. 38:59-64), which measures the negative geotropic response that flies naturally display. Groups of flies at different stages of adult life (3, 10, 15 days) from experimental and control groups were assayed. […] Three different UAS-A-beta42 strains were used, expressing different amounts of A-beta42 peptide (A-beta42^H29.3, A-beta42^HJ2.12, A-beta42^HJ2.19). Strains A-beta42^HJ2.12 and A-beta42^HJ2.19 express higher levels of the peptide than strain A-beta42^H29.3.
If successful, this treatment would provide the same beneficiary effect on A-beta42 induced toxicity found through genetic modification. Flies expressing A-beta42 were fed every three days with 10 uM, 20 uM, 30 uM and 60 uM (where uM=10^−6 M) concentration of RAD001. Lifespan was scored until all the RAD001 fed flies died. The climbing assay was performed on RAD001 fed flies at 21 day, and compared to placebo fed flies.

The next test has as its system A-beta42. The test can be described thus: Sandwich ELISA of A-beta42 extracted from heads of transgenic flies fed RAD001. The following applies: FIG. 8. On the procedure:
Antibodies: Mouse monoclonal antibody directed to the NH2 terminus of the A-beta peptide was used as the capture antibody (Biosource Cat#44-352-100). The antibody was diluted in 1×PBS 1:2900 (3.5 μl/10 ml) and applied to Maxisorb Plates (Nunc Cat#442404) and 100 ul/96 well or 50 μl/384 well by incubating overnight at 4C. Polyclonal detection antibodies were obtained from Biosource (anti-hA-beta40 Cat#44-348 and anti-hA-beta42 Cat#44-344) and diluted 1/2000 in 1% BSA/PBS […]. The tertiary antibody (Santa Cruz Cat# SC2313) was a horseradish peroxidase labeled anti-rabbit IgG (Diluted 1/5000 in 1% BSA/PBS).
Preparation of the A-beta standards: 2.31 g of sodium bicarbonate was dissolved in 500 mL of distilled water and the pH was adjusted to 9.0 with 2N sodium hydroxide. […]
Indirect Two Sandwich ELISA: After the overnight incubation with capture antibody the plates were washed twice on a microplate washer (Bioteck Instruments, Inc) in 1×PBS/0.05% Tween 20/1 mM EDTA). […] The plates were read on a microplate reader at […] (Molecular Devices, Inc.) within one hour.
The amount of A-beta42 from the heads of aged flies expressing A-beta42 was measured to see whether inactivation or reduced activation of Tor function affects the amount of A-beta42, such that it would correlate with the amelioration of A-beta42 induced toxicity. […]

With `CO[C@H]1C[C@@H]2CC[C@@H](C)[C@@](O)(O2)C(=O)C(=O)N2CCCC[C@H]2C(=O)O[C@H]([C@H](C)C[C@@H]2CC[C@@H](OCCO)[C@H](OC)C2)CC(=O)[C@H](C)/C=C(\C)[C@@H](O)[C@@H](OC)C(=O)[C@H](C)C[C@H](C)/C=C/C=C/C=C/1C` [RAD001], the “lifespan of flies expressing A-beta42” value in test [1] is recorded as “partial rescue of lifespan”. For the same compound, the “locomotor defect (climbing assay)” value in test [2] is recorded as “partially abrogated”. The “total A-beta42” value in the test on A-beta42 (flies dosed with 60 uM RAD001, heads of 13 day old flies) is on record as “pronounced decrease”. Further, the “reduction of the amount of soluble A-beta42” value in the test on A-beta42 (heads of 13 day old flies fed 10-60 uM RAD001 every three days, normalized to total protein, vs placebo) is reported as “up to 42%”.
